Source: ChEMBL document CHEMBL4052690, “2-Chlorophenyl-substituted benzofuro[3,2-b]pyridines with enhanced topoisomerase inhibitory activity: The role of the chlorine substituent” (Bioorg Med Chem Lett, 2017)
Counter-ions that a name gives are not always drawn.

Assays:
[1] = target: T1, DNA topoisomerase 1 (Homo sapiens) (UniProt P11387); assay: Inhibition of human recombinant DNA topoisomerase 1 assessed as reduction in enzyme-mediated relaxation of supercoiled pBR322 plasmid DNA at 100 uM in presence of 0.1% BSA by ethidium bromide staining based gel electrophoresis and UV spectroscopy relative to camptothecin
T1 sequence (whole entry): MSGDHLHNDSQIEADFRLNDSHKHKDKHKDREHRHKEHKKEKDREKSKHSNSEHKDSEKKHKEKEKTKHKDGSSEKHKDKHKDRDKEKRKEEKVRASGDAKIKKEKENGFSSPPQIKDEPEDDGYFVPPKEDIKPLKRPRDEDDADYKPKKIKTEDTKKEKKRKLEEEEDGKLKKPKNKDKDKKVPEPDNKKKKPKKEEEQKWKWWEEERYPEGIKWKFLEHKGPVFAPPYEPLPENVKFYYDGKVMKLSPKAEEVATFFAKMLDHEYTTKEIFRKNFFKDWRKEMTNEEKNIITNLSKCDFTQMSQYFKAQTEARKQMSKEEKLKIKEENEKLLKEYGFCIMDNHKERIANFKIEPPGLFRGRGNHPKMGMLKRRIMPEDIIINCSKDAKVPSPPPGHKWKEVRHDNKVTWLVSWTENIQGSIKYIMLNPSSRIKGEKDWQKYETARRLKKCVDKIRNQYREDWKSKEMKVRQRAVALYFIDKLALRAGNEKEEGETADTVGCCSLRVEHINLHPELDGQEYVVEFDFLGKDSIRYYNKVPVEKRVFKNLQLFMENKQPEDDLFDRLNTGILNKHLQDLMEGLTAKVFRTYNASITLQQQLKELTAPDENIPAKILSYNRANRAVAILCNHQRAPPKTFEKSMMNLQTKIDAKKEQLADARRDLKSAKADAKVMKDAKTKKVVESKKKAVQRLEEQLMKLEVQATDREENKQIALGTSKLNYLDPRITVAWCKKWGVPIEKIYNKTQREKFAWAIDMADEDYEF

Homo sapiens [2] = species: Homo sapiens; assay: Inhibition of human recombinant DNA topoisomerase 2 assessed as reduction in enzyme-mediated relaxation of supercoiled pBR322 plasmid DNA at 20 uM in presence of 0.1% BSA by ethidium bromide staining based gel electrophoresis and UV spectroscopy relative to etoposide
HeLa = assay: Antiproliferative activity against human HeLa cells after 72 hrs by CCK8 assay; assay type: functional, cell-based
Homo sapiens [3] = species: Homo sapiens; assay: Inhibition of human recombinant DNA topoisomerase 2 assessed as reduction in enzyme-mediated relaxation of supercoiled pBR322 plasmid DNA at 100 uM in presence of 0.1% BSA by ethidium bromide staining based gel electrophoresis and UV spectroscopy relative to etoposide
HCT-15 = assay: Antiproliferative activity against human HCT15 cells after 72 hrs by CCK8 assay; assay type: functional, cell-based; details: HCT-15, 72 h
T47D = assay: Antiproliferative activity against human T47D cells after 72 hrs by CCK8 assay; assay type: functional, cell-based
[4] = target: T1, DNA topoisomerase 1 (Homo sapiens); assay: Inhibition of human recombinant DNA topoisomerase 1 assessed as reduction in enzyme-mediated relaxation of supercoiled pBR322 plasmid DNA at 100 uM in presence of 0.1% BSA by ethidium bromide staining based gel electrophoresis and UV spectroscopy
Homo sapiens [5] = species: Homo sapiens; assay: Inhibition of human recombinant DNA topoisomerase 2 assessed as reduction in enzyme-mediated relaxation of supercoiled pBR322 plasmid DNA at 20 uM in presence of 0.1% BSA by ethidium bromide staining based gel electrophoresis and UV spectroscopy
Homo sapiens [6] = species: Homo sapiens; assay: Inhibition of human recombinant DNA topoisomerase 2 assessed as reduction in enzyme-mediated relaxation of supercoiled pBR322 plasmid DNA at 100 uM in presence of 0.1% BSA by ethidium bromide staining based gel electrophoresis and UV spectroscopy

Row | fold change (FC) [1] | fold change (FC) (Homo sapiens [2]) | IC50 (HeLa) [µM] | fold change (FC) (Homo sapiens [3]) | IC50 (HCT-15) [µM] | IC50 (T47D) [µM] | inhibition [4] [%] | inhibition (Homo sapiens [5]) [%] | inhibition (Homo sapiens [6]) [%] | SMILES
1 | 1.15 | 0.94 | > 50 | 1.64 | > 50 | > 50 | 100 | 29.5 | 86 | Clc1ccc(-c2cc(-c3ccccc3Cl)nc3c2oc2ccccc23)o1
2 | 0.98 | 0.47 | > 50 | 1.29 | 19.3 | 17.2 | 85.1 | 17.3 | 85.3 | Clc1cccc(-c2cc(-c3cccs3)c3oc4ccccc4c3n2)c1
3 | 1.15 | 1.51 | 40.8 | 1.3 | > 50 | 23.2 | 100 | 55.4 | 85.5 | Clc1cccc(-c2cc(-c3ccco3)c3oc4ccccc4c3n2)c1
4 | 1.15 | 2.2 | 36.5 | 1.46 | > 50 | 13.2 | 100 | 80.9 | 96.2 | Clc1ccc(-c2cc(-c3ccco3)c3oc4ccccc4c3n2)cc1
5 | 1.15 | 0.48 | > 50 | 1.19 | > 50 | > 50 | 100 | 17.6 | 78.2 | Clc1ccc(-c2cc(-c3ccccc3)c3oc4ccccc4c3n2)cc1
6 | 0.92 | 0.32 | > 50 | 1.83 | > 50 | > 50 | 79.9 | 10.1 | 95.7 | Clc1ccc(-c2cc(-c3ccsc3)c3oc4ccccc4c3n2)cc1
7 | 0.81 | 2.34 | 16.4 | 1.91 | > 50 | 11.4 | 98.9 | 73.7 | 100 | Clc1ccc(-c2cc(-c3ccc(Cl)o3)c3oc4ccccc4c3n2)cc1
8 | 0.95 | 2.61 | 16.6 | 1.7 | 38.6 | 18.5 | 86.5 | 82.1 | 88.7 | Clc1ccc(-c2cc(-c3ccoc3)c3oc4ccccc4c3n2)cc1
9 | 1.15 | 0.41 | > 50 | 0.89 | > 50 | > 50 | 100 | 15.1 | 58.5 | Clc1ccc(-c2cc(-c3cccs3)c3oc4ccccc4c3n2)cc1
10 | 0.97 | 1.6 | 41.1 | 1.65 | 17.6 | 18.1 | 84.3 | 50.4 | 86.1 | Clc1cccc(-c2cc(-c3ccoc3)c3oc4ccccc4c3n2)c1
11 | 1.15 | 1.13 | 18.2 | 1.86 | 5.47 | 7.47 | 100 | 35.5 | 97.3 | Clc1cccc(-c2cc(-c3ccc(Cl)o3)c3oc4ccccc4c3n2)c1
12 | 0.81 | 0.39 | > 50 | 1.79 | 13.5 | 13.2 | 70.2 | 12.2 | 93.8 | Clc1cccc(-c2cc(-c3ccsc3)c3oc4ccccc4c3n2)c1

Continued, compound first:

Row | SMILES | fold change (FC) [1] | fold change (FC) (Homo sapiens [2]) | IC50 (HeLa) [µM] | fold change (FC) (Homo sapiens [3]) | IC50 (HCT-15) [µM] | IC50 (T47D) [µM] | inhibition [4] [%] | inhibition (Homo sapiens [5]) [%] | inhibition (Homo sapiens [6]) [%]
13 | Clc1ccccc1-c1cc(-c2ccccc2)c2oc3ccccc3c2n1 | 0.38 | 0.19 | 21.7 | 0.88 | 19.4 | 19.5 | 33 | 6.9 | 58.2
14 | Clc1ccccc1-c1cc(-c2cccs2)c2oc3ccccc3c2n1 | 1.08 | 0.29 | 21.7 | 0.97 | 16.1 | > 50 | 93.4 | 10.8 | 64.1
15 | COc1cc([C@@H]2c3cc4c(cc3[C@@H](O[C@@H]3O[C@@H]5CO[C@@H](C)O[C@H]5[C@H](O)[C@H]3O)[C@H]3COC(=O)[C@H]23)OCO4)cc(OC)c1O [ETOPOSIDE] |  |  | 4.12 |  | 9.27 |  |  | 31.5 to 36.8 | 52.3 to 66
16 | Clc1cccc(-c2cc(-c3ccccc3)c3oc4ccccc4c3n2)c1 | 0.93 | 0.4 | 37.2 | 1.26 | > 50 | 33.6 | 80.6 | 14.8 | 83
17 | Clc1ccccc1-c1cc(-c2ccco2)c2oc3ccccc3c2n1 | 0.99 | 0.14 | > 50 | 0.9 | 21.7 | > 50 | 86.1 | 5.1 | 59.4
18 | CC[C@@]1(O)C(=O)OCc2c1cc1n(c2=O)Cc2cc3ccccc3nc2-1 [CAMPTOTHECIN] |  |  | 2.62 |  |  | 2.31 |  |  | 
19 | COc1cccc2c1C(=O)c1c(O)c3c(c(O)c1C2=O)C[C@@](O)(C(=O)CO)C[C@@H]3O[C@H]1C[C@H](N)[C@H](O)[C@H](C)O1 [DOXORUBICIN HYDROCHLORIDE] |  |  | 2.77 |  | 0.94 | 1.29 |  |  | 
20 | Clc1ccccc1-c1cc(-c2ccsc2)c2oc3ccccc3c2n1 | 1.15 | 2.33 | > 50 | 1.52 | 10.6 | 25.5 | 100 | 85.8 | 100
21 | Clc1ccccc1-c1cc(-c2ccoc2)c2oc3ccccc3c2n1 | 0.63 | 0.46 | 13.3 | 1.59 | 20.6 | 19.4 | 54.6 | 14.6 | 83.2
